Data reported in patent US11160843B2, “Oxytocin and opioid antagonists for treatment of social dysfunction disorder” (YALE UNIVERSITY, priority 2018, dated 2021).

Key:
[1] = system: rhesus macaques (Macaca mulatta); experiment: Live gaze interaction task (social attention to a conspecific); assay type: in vivo; conditions: for attention to the conspecific (looking at the eyes) following mutual eye contact, compared with SAL: 0.5-3 s after mutual eye contact, permutation test, OTNAL P<0.01, OT, NAL both P>0.05
Procedure: Nine adult rhesus macaques (Macaca mulatta) were selected for study. The animals (six males and three females) were all housed together in a colony in either pairs or triads. Each animal was kept on a 12-h light/dark cycle and had access to food 24 h each day with controlled access to water during testing. Before testing began, each monkey received a surgically implanted head post (Crist Instruments, Gray Matter Research) for restraining its head while tracking eye positions. At the time of surgery, anesthesia was induced with ketamine hydrochloride (10 mg/kg i.m.) and maintained with isoflurane (1.0-3.0%, to effect). Aseptic procedures were used, and heart rate, respiration rate, blood pressure, expired CO2, and body temperature were monitored throughout the procedure. Monkeys were allowed an additional 30-40 d of recovery after the implant surgery.
All of the tested subjects received pharmacological manipulations through a pediatric nebulizer (PARI Baby Nebulizer; PARI Respiratory Equipment) with a cone-shaped facemask. The facemask, designed for canine anesthesia, was fitted entirely over the muzzle area, and the subject breathed freely through the nose for the duration of the dose administration. Before experimental sessions, monkeys were first incrementally habituated to the facemask and then to the nebulizer until they were completely relaxed during the procedure, which typically took about 3-5 d. […]
Gaze calibration procedures for studying dyadic gaze interactions reported by Dal Monte, et al., 2016, J. Neurophysiol. […] For analysis purposes, the location was determined where the animal was looking on a theoretical screen located further from the actual screen on which the animal was calibrated. With trigonometric corrections, the ROIs were identified and matched based on individual measurements of each monkey's face to the dimension of fixations as measured from the calibration screen. […]
Two animals sat in front of each other with no task constraints while the eye positions of both animals were recorded simultaneously and continuously (FIG. 1A). […]

[2] = system: rhesus macaques (Macaca mulatta); experiment: NAL dose-response curve, free-viewing task (fixation frequency to face images); assay type: in vivo; conditions: intranasal NAL 0.5, 1, 2 mg via nebulizer, P<0.001 for 1 mg over 2 mg and over 0.5 mg
Description: All of the tested subjects received pharmacological manipulations through a pediatric nebulizer (PARI Baby Nebulizer; PARI Respiratory Equipment) with a cone-shaped facemask. The facemask, designed for canine anesthesia, was fitted entirely over the muzzle area, and the subject breathed freely through the nose for the duration of the dose administration. Before experimental sessions, monkeys were first incrementally habituated to the facemask and then to the nebulizer until they were completely relaxed during the procedure, which typically took about 3-5 d. This habituation procedure was performed with saline (SAL). During both the habituation phase and the testing phase, the animals' heads were restrained to minimize movement and enhance administration reliability. Each of the different pharmacology manipulations tested was diluted to a volume of 2 mL using sterile SAL and was administered over the course of 8-10 min. In addition, experimental sessions were conducted at the same time of day to control for diurnal fluctuations. […]
On the day of the experiment, monkeys were transported in a primate chair from the colony room to the experimental room. […] During the 15-s period, monkeys were free to explore, or not explore, each face presented while an infrared eye-tracking camera continuously recorded their eye positions (Eyelink; SR Research). […]

[3] = system: social partners; conditions: background statement; cited from earlier work

Compound	attention to the conspecific (looking at the eyes) following mutual eye contact, compared with SAL [1]	frequency of fixations to the eyes of a conspecific, normalized by SAL ([1]; OT 24 IU, NAL 1 mg, intranasal, P=0.004 OTNAL over SAL, P=0.069 over NAL, P=0.022 over OT, OT over SAL P=0.059 (marginal))	frequency of fixations to the eyes, normalized by SAL [2]	frequency of fixations to faces, normalized by SAL ([2]; inverted U-shaped curve)	solicitation for social contact, such as grooming and proximity [3]	physical contact between social partners [3]
CC[C@H](C)[C@@H]1NC(=O)[C@H](Cc2ccc(O)cc2)NC(=O)[C@@H](N)CSSC[C@@H](C(=O)N2CCC[C@H]2C(=O)N[C@@H](CC(C)C)C(=O)NCC(N)=O)NC(=O)[C@H](CC(N)=O)NC(=O)[C@H](CCC(N)=O)NC1=O [OT, 1-({(4R,7S,10S,13S,16S,19R)-19-amino-7-(2-amino-2-oxoethyl)-10-(3-amino-3-oxopropyl)-16-(4-hydroxybenzyl)-13-[(1S)-1-methylpropyl]-6,9,12,15,18-pentaoxo-1,2-dithia-5,8,11,14,17-pentaazacycloicosan-4-yl}carbonyl)-L-prolyl-L-leucylglycinamide]	neither OT nor NAL administered alone had a significant effect	overall increased fixations to the eyes compared with SAL	–	–	–	–
C=CCN1CC[C@]23c4c5ccc(O)c4O[C@H]2C(=O)CC[C@@]3(O)[C@H]1C5 [NAL, naloxone]	neither OT nor NAL administered alone had a significant effect	–	maximal effect again clearly occurred following the 1-mg dose	maximal effects clearly occurred following the 1-mg dose	increases solicitation for social contact	–
CN1CC[C@]23c4c5ccc(O)c4O[C@H]2[C@@H](O)C=C[C@H]3[C@H]1C5 [morphine]	–	–	–	–	–	decrease physical contact between social partners
